Results as given in PMC9548378 (Science translational medicine, 2022).

Biological target: T1, KDM4B (Homo sapiens, UniProt O94953)
T1 sequence (O94953 1-366): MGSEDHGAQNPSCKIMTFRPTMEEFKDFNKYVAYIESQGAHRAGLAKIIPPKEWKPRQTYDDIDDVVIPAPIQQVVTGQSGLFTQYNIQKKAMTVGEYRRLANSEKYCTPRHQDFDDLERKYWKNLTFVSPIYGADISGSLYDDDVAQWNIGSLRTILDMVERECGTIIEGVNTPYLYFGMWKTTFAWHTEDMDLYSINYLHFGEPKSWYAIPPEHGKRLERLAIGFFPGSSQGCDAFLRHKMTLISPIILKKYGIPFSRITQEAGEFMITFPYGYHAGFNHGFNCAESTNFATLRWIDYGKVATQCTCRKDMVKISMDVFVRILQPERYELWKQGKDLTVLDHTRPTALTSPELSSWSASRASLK
Test: co-crystal structure
Assay type: binding

- Kd: 105 nM
Compound: CN(c1ccccc1)c1ccc2c(c1)CCC[C@H]2CNc1cnccc1C(=O)O [QC6352]
